Data reported in publication PMC5951806, “Rapid labelling and covalent inhibition of intracellular native proteins using ligand-directed N-acyl-N-alkyl sulfonamide” (Nature Communications, 2018).

Tests used:
Assay in all cases: TMT LC-MSMS of 11-labelled proteins
Format in all cases: cell-based
[1] = molecular target: T1, ADP/ATP translocase 2 (SLC25A5) (Homo sapiens, UniProt P05141)
T1 sequence (P05141 1-298): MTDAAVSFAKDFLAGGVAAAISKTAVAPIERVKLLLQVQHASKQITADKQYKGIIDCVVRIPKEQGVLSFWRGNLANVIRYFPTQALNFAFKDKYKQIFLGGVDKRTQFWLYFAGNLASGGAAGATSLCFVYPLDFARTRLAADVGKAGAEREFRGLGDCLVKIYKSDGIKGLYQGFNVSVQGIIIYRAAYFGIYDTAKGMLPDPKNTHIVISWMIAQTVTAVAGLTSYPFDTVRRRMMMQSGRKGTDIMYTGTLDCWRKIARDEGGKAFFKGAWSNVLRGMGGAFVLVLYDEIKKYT

[2] = molecular target: Fatty acid synthase (FASN) (Homo sapiens, UniProt P49327)
Prohibitin-2 (PHB2) = Prohibitin-2 (PHB2) (Homo sapiens, UniProt Q99623); conditions: SKBR3 cells; for Abundance Ratio: (11) / (DMSO): 11 0.5 µM 3 h vs DMSO; for Abundance Ratio: (11) / (11 with PU-H71): 11 0.5 µM 3 h vs with PU-H71 10 µM
[3] = molecular target: ATP synthase subunit beta, mitochondrial (ATP5B) (Homo sapiens, UniProt P06576)
[4] = sheet Exp1, SKBR3 cells, 11 0.5 µM 3 h vs DMSO
[5] = sheet Exp1, SKBR3 cells, 11 0.5 µM 3 h vs with PU-H71 10 µM
[6] = sheet Merged, SKBR3 cells, 11 0.5 µM 3 h vs DMSO
[7] = sheet Merged, SKBR3 cells, 11 0.5 µM 3 h vs with PU-H71 10 µM

Chain of Fatty acid synthase (FASN) (P49327 whole entry): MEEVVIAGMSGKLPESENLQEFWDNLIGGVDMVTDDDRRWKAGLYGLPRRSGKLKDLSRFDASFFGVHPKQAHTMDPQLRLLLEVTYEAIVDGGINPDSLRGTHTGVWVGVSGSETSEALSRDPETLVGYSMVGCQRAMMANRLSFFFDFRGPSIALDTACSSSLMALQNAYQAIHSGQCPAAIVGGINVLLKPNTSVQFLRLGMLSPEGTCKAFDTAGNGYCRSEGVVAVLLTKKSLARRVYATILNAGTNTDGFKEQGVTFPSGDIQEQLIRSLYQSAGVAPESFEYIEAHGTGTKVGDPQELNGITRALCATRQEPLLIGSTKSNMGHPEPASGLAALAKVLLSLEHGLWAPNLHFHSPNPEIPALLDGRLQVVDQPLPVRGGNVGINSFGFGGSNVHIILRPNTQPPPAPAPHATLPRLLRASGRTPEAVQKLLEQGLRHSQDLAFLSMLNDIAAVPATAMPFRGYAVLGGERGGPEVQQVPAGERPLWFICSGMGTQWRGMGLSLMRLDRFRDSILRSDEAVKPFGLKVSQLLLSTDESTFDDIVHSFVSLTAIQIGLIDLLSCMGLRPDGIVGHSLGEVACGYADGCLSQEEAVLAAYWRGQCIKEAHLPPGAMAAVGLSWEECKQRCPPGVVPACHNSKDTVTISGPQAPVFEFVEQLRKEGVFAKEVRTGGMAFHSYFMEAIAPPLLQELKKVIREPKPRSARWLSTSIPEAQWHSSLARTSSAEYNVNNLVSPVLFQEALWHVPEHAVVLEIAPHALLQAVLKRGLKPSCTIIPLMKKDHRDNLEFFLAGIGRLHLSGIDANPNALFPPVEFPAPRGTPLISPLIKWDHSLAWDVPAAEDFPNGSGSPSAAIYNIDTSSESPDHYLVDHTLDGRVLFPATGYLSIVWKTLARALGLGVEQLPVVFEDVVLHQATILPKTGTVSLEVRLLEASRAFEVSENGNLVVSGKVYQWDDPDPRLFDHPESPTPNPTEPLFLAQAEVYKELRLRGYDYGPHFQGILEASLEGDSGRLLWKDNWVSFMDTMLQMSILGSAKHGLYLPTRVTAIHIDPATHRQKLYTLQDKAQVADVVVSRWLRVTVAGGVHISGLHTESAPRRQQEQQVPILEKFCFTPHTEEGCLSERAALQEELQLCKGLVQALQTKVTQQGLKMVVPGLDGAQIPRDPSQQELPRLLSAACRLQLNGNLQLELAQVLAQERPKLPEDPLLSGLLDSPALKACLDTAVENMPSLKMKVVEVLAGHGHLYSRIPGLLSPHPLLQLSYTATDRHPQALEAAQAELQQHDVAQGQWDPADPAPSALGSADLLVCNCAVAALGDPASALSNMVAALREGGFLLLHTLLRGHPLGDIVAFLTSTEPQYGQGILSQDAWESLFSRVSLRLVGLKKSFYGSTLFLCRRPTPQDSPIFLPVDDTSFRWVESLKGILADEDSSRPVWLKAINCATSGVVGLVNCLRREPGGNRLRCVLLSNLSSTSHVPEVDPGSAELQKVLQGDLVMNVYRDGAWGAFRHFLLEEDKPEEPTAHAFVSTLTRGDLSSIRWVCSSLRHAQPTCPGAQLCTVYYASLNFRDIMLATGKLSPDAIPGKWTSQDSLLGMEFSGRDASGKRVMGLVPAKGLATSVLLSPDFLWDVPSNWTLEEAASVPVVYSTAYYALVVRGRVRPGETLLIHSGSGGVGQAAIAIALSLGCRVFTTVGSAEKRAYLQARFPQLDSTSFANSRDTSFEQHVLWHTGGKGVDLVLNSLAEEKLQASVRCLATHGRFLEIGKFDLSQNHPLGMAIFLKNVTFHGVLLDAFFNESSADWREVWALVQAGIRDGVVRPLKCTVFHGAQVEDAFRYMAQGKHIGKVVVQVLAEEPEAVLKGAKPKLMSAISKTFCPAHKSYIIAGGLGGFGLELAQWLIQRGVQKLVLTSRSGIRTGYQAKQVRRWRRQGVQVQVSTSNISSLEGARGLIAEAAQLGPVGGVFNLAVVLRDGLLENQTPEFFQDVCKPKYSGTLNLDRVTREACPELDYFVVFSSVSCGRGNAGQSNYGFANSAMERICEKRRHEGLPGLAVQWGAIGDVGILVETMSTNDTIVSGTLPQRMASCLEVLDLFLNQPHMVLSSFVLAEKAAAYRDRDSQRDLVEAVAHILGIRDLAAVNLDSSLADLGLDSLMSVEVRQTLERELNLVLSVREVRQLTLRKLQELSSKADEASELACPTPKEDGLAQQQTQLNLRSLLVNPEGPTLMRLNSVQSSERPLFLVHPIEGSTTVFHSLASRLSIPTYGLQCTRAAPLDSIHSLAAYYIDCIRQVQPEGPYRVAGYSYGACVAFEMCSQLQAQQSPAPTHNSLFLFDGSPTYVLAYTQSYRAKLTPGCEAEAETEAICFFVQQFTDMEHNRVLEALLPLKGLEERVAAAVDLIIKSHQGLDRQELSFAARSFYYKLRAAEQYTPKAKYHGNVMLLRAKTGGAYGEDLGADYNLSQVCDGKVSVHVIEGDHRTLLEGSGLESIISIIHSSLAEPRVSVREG
Chain of Prohibitin-2 (PHB2) (Q99623 whole entry): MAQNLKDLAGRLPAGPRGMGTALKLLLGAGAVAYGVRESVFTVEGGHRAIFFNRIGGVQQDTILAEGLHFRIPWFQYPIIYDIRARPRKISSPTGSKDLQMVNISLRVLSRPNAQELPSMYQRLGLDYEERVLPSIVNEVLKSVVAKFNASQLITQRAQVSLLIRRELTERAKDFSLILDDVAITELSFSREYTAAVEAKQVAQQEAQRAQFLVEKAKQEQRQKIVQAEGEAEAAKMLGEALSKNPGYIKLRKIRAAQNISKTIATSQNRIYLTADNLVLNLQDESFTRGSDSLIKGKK
Chain of Prohibitin-2 (PHB2) (P35232 whole entry partner): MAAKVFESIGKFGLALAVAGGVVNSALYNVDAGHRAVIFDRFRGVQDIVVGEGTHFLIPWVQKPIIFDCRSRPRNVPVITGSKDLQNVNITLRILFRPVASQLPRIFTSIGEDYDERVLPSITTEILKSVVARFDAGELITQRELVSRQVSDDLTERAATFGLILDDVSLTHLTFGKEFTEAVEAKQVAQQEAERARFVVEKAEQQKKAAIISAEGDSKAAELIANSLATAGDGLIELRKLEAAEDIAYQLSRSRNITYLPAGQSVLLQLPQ

Abundance Ratio: (11) / (11 with PU-H71) ([1]; Exp3, SLC25A5): 0.462
Abundance Ratio: (11) / (DMSO) ([1]; Exp3, SLC25A5): 2.668
Abundances (Grouped): 11 ([1]; Exp3, SLC25A5): 245.2
Abundances (Grouped): 11 with PU-H71 ([1]; Exp3, SLC25A5): 530.2
Abundance Ratio: (11) / (DMSO) [1, 4]: 5.138
Abundance Ratio: (11) / (11 with PU-H71) [1, 5]: 0.711
Abundance Ratio: (11) / (11 with PU-H71) ([1]; sheet Exp2, SLC25A5): 0.597
Abundance Ratio: (11) / (DMSO) ([1]; sheet Exp2, SLC25A5): 5.273
Abundances (Grouped): 11 ([1]; sheet Exp2, SLC25A5): 116
Abundances (Grouped): 11 with PU-H71 ([1]; sheet Exp2, SLC25A5): 194.4
Abundance Ratio: (11) / (DMSO) [1, 6]: 2.741
Abundance Ratio: (11) / (11 with PU-H71) [1, 7]: 0.563
Abundance Ratio: (11) / (11 with PU-H71) ([2]; Exp3, FASN): 0.917
Abundance Ratio: (11) / (DMSO) ([2]; Exp3, FASN): 4.35
Abundances (Grouped): 11 ([2]; Exp3, FASN): 3505
Abundances (Grouped): 11 with PU-H71 ([2]; Exp3, FASN): 3823.4
Abundance Ratio: (11) / (DMSO) [2, 4]: 4.652
Abundance Ratio: (11) / (11 with PU-H71) [2, 5]: 0.931
Abundance Ratio: (11) / (11 with PU-H71) ([2]; sheet Exp2, FASN): 0.929
Abundance Ratio: (11) / (DMSO) ([2]; sheet Exp2, FASN): 4.46
Abundances (Grouped): 11 ([2]; sheet Exp2, FASN): 3656.7
Abundances (Grouped): 11 with PU-H71 ([2]; sheet Exp2, FASN): 3935.1
Abundance Ratio: (11) / (DMSO) [2, 6]: 4.491
Abundance Ratio: (11) / (11 with PU-H71) [2, 7]: 0.931
Abundance Ratio: (11) / (DMSO) (Prohibitin-2 (PHB2); sheet Exp1): 1.815
Abundance Ratio: (11) / (11 with PU-H71) (Prohibitin-2 (PHB2); sheet Exp1): 0.795
Abundance Ratio: (11) / (DMSO) (Prohibitin-2 (PHB2); sheet Merged): 1.815
Abundance Ratio: (11) / (11 with PU-H71) (Prohibitin-2 (PHB2); sheet Merged): 0.795
Abundance Ratio: (11) / (11 with PU-H71) ([3]; sheet Exp2, ATP5B): 0.866
Abundance Ratio: (11) / (DMSO) ([3]; sheet Exp2, ATP5B): 1.928
Abundances (Grouped): 11 ([3]; sheet Exp2, ATP5B): 141.5
Abundances (Grouped): 11 with PU-H71 ([3]; sheet Exp2, ATP5B, with PU-H71): 163.4
Abundance Ratio: (11) / (DMSO) [3, 6]: 1.928
Abundance Ratio: (11) / (11 with PU-H71) [3, 7]: 0.866
Structure (SMILES): CC(=O)Oc1ccc2c(c1)Oc1cc(OC(C)=O)ccc1C21OC(=O)c2cc(C(=O)NCCOCCOCCNC(=O)CCCC(=O)N(CC#N)S(=O)(=O)c3ccc(C(=O)NCCCn4c(Sc5cc6c(cc5I)OCO6)nc5c(N)ncnc54)cc3)ccc21 [compound 11]
